Reference: publication PMC8418874 (European journal of medicinal chemistry, 2018)

Key:
SKOV-3 cells [1] = assay: Fluorescence microscopy, cellular localization; format: cell-based, human; settings: SKOV-3, 5 μM, DAPI nuclear stain
HT-1080 cells = assay: Cellular uptake by flow cytometry; format: cell-based, human; settings: HT-1080, Dox 5 μM, Dox-SS-Pyr 50 μM, Dox-SS-[C(WR)4K] 50 μM, 3 h, 37 °C, serum-free medium, triplicate
[2] = system: human ovarian cancer cells (SKOV-3); assay: Antiproliferative activity / viability assay; format: cell-based; settings: SK-OV-3, 24 h, read-out: inhibition of cell proliferation
SKOV-3 cells [3] = assay: Cellular uptake by flow cytometry; format: cell-based, human; settings: SKOV-3, Dox 5 μM, Dox-SS-Pyr 50 μM, Dox-SS-[C(WR)4K] 50 μM, 3 h, 37 °C, serum-free medium, triplicate

| SMILES | cellular localization (SKOV-3 cells [1]; after 1 h) | cellular uptake (mean fluorescence) (HT-1080 cells) | inhibition at 5 µM [2] | cellular localization (SKOV-3 cells [1]; after 24 h) | cellular uptake (mean fluorescence) (SKOV-3 cells [3]) |
| --- | --- | --- | --- | --- | --- |
| COc1cccc2c1C(=O)c1c(O)c3c(c(O)c1C2=O)C[C@@](O)(C(=O)CO)C[C@@H]3O[C@H]1C[C@H](NC(=N)CCCSSc2ccccn2)[C@H](O)[C@H](C)O1 [Dox-SS-Pyr, pyridyl doxorubicin] | distributed mostly outside the nucleus |  |  |  |  |
| COc1cccc2c1C(=O)c1c(O)c3c(c(O)c1C2=O)C[C@@](O)(C(=O)CO)C[C@@H]3O[C@H]1C[C@H](N)[C@H](O)[C@H](C)O1 [Dox, Doxorubicin] | localized in the nucleus | higher cellular uptake in SKOV-3 and HT-1080 cells | 76% | localized in the nucleus | higher cellular uptake in SKOV-3 and HT-1080 cells |
| COc1cccc2c1C(=O)c1c(O)c3c(c(O)c1C2=O)C[C@@](O)(C(=O)CO)C[C@@H]3O[C@H]1C[C@H](NC(=N)CCCS)[C@H](O)[C@H](C)O1 [Dox-SH, thiolated doxorubicin] | distributed mostly outside the nucleus |  |  |  |  |
